Reference: patent publication US9801903B2, “Targeting cancer with metabolic therapy and hyperbaric oxygen” (priority 2012, dated 2017)

System: VM-M3/Fluc cells
Experiment: Whole animal tumor bioluminescence (tumor size and metastatic spread)
Assay type: in vivo, VM/Dk mice
Conditions: Example 2; day 21 post-inoculation; FIG. 8
Source text: VM-M3/Fluc cells (T. Seyfried; Boston College) were obtained from a spontaneous tumor in a VM/Dk inbred mouse and adapted to cell culture (Huysentruyt et al., Metastatic cancer cells with macrophage properties: evidence from a new murine tumor model. Intl J Can. 2008, 123(1):73-84). […] VM-M3/Fluc cells are transfected with the firefly luciferase gene which produces a bioluminescent product in the presence of the enzymatic substrate luciferin (Shelton, et al. (2010) A novel pre-clinical in vivo mouse model for malignant brain tumor growth and invasion. Journal of neuro-oncology 99: 165-176). Bioluminescence can be detected and measured with the Xenogen IVIS Lumina System (Caliper LS). […] Bioluminescent signal was recorded using a 1 second exposure time on the IVIS Lumina cooled CCD camera. Progression of the metastatic cancer was measured by tracking the bioluminescent signal of the whole animal over time. Tumor bioluminescence will be measured once weekly for the duration of the study.
Tumor progression was measured using bioluminescence on the Xenogen IVIS Lumina cooled CCD camera (Caliper LS, Hopkinton, Mass.). […] Whole animal bioluminescent signal was measured in photons/sec once a week as an indicator of metastatic tumor size and spread. Tumor progression was measured 21 days after tumor cell inoculation.

Row | Compound | tumor bioluminescence / tumor growth and metastasis
1 | CC(O)CCO (centres unmarked) [BD, 1,3-butanediol] | greatly reduced tumor growth and reduced metastasis of the tumor
2 | CC(=O)CC(=O)OCC[C@@H](C)OC(=O)CC(C)=O [KE, R,S-1,3-butanediol-diacetoacetate ester] | greatly reduced tumor growth and reduced metastasis of the tumor
